Reference: patent publication US7163935B2, “Scorpionate-like pendant macrocyclic ligands, complexes and compositions thereof, and methods of using same” (The United States of America as represented by the …, priority 2002, dated 2007)

Test: Complexation (formation) kinetics with Y(III), competing reaction with Arsenazo III, absorbance at 652 nm
Assay type: physicochemical
Conditions: pH 4, room temperature
Protocol: Formation kinetics of Y(III) complexes of 1, 2, and DOTA (Macrocyclics) was measured by monitoring the absorption at 652 nm. To 2 mL of 1.6 mM YCl3 (from atomic absorption standard solution, Aldrich) and 5 mM Arsenazo III (Sigma) in 0.15 M NH4OAc (pH 4.0, metal-free), 20 μL of 10 mM ligand solution were added into a cell. After mixing (<5 sec), absorption of the solution at 652 nm (absorption wavelength of Y(III)-Arsenazo III) (Kline et al., Bioconjugate Chem., 1991, 2,26–31) was immediately followed over time at room temperature using an HP 8452A Diode Array Spectrophotometer, which was pre-blanked with a 5 mM Arsernazo III solution. Without any ligand added, the absorption was 0.089 for 1.6 mM YCl3 in 5 mM Arsernazo III solution at 652 nm.
The complexation kinetics of novel chelates 1, 2, and DOTA with Y(III) was qualitatively investigated using a competing reaction with Arsenazo III according to a modification of a previously reported procedure (Kodama et al., Inorg. Chem., 1991, 30, 1270–1273). The absorbance (A652) for the Y(III)-Arsenazo III complex was measured in the absence and in the presence of the chelates (1, 2, and DOTA) over 1 h. The results are shown in FIG. 3, which is a line graph of absorbance at 652 nm vs. reaction time (s), in which curve “a” represents Y-2, curve “b” represents Y-DOTA, and curve “c” represents Y-1. […] Complexation of Y(III) by 2 is assumed to occur to some degree, but the formed complex might undergo decomplexation due to an absence of complex stability, ultimately leading to an unfavorable equilibrium situation.

[1] = Arsenazo III competition, A652 over 1 h

| Compound | complex formation with Y(III) (rate) [1] | rate of complex formation with Y(III) compared to DOTA (time scan measurements) | degree of complexation of Y(III) [1] |
| --- | --- | --- | --- |
| O=C(O)CN1CCN(CC(=O)O)CCN(CC(=O)O)CCN(CC(=O)O)CC1 [DOTA, 1,4,7,10-tetraazacyclododecane-N,N′,N″,N′″-tetraacetic acid, reference compound] | sluggish | – | – |
| Cl.Cl.Cl.Cl.O=C(O)CN1CCN(CCN(CC(=O)O)CC(=O)O)CCN(CC(=O)O)CC1 [ligand 1, {[2-(4,7-bis-carboxymethyl)-[1,4,7]triazacyclononan-1-yl-ethyl]-carbonylmethyl-amino]-acetic acid tetrahydrochloride] | quite rapid and is essentially complete very shortly after the starting point of measurement | much greater rate than DOTA | – |
| Cl.Cl.Cl.Cl.O=C(O)CN1CCN(CCCN(CC(=O)O)CC(=O)O)CCN(CC(=O)O)CC1 [ligand 2, {[3-(4,7-bis-carboxymethyl)-[1,4,7]triazacyclononan-1-yl-propyl]-carbonyl-methylamino]-acetic acid tetrahydrochloride] | very slow | – | slight and remained unchanged over the period of measurement |
